By IC50 is commonly meant the concentration that inhibits the measured activity by half. The IC90 is the concentration needed for an effect of 90%.

In brackets after ≈: the same amount, converted by molar mass. Marks after values point to notes of the source that are not given here.

Assay [1] deals with HIV-1 CI#17 (X4, clade B). The experiment in a line: HIV-1 infection assay PBMC/primary isolate CI#17 (p24 Ag ELISA). To be noted: Human immunodeficiency virus 1, PBMC. It counts as cell-based. How it is done:
(§1) The anti-HIV-1 potencies of NANOBODIES on the X4 HIV-1 clone NL4.3 or primary virus strains UG270 (X4, Clade D), CI#17 (X4, clade B), the R5 HIV-1 strain BaL or the R5/X4 HIV-1 HE strain in MT-4, U87.CD4.CXCR4, U87.CD4.CCR5 and/or phytohemagglutin-stimulated PBMCs from different donors were determined by measuring the cytopathic effect of HIV-1 (in MT-4 and U87 cell lines) microscopically and by tetrazolium-based colorimetric evaluation or by quantification of the viral p24 antigen production in the culture supernatant (PBMCs) as described in detail. Primary virus strains were grown 1 or 2 times in PBMC only.
(§2) Peripheral blood mononuclear cells (PBMCs) from healthy donors were isolated by density centrifugation (Lymphoprep; Nycomed Pharma, AS Diagnostics, Oslo, Norway) and stimulated with phytohemagglutin for 3 days. The activated cells were washed with PBS and viral infections were performed as described previously (Schols D, et al. (1997) Inhibition of T-tropic HIV strains by selective antagonization of the chemokine receptor CXCR4. J Exp Med 186:1383-1388). At 8-10 days after the start of the infection, viral p24 Ag was detected in the culture supernatant by an enzyme-linked immunosorbent assay (Perkin Elmer, Brussels, Belgium).
In general terms: An ELISA detects its analyte on a solid surface through an enzyme-linked reagent.

Assay [2] has as its system X4 HIV-1 NL4.3. The experiment in a line: HIV-1 infection assay MT-4/NL4.3 (cytopathic effect, MTS). It counts as cell-based. The following applies: Human immunodeficiency virus 1; MT-4/NL4.3 exp. 1. In general terms: Protection from cytopathic effect is a common read-out in antiviral testing.
Assay [3] concerns the target T1, CXCR4 (Homo sapiens, UniProt P61073). The experiment in a line: Competition binding with [125I]-238D4 on membranes from HEK293T cells transiently expressing CXCR4. Further details: expressed in transfected cells; host or cells: HEK293T, transient (pcDNA3.1-CXCR4). How it is done:
(§3) Membranes from HEK293T cells transiently expressing CXCR3 or CXCR4 were prepared 48 h after transfection as follows. Cells were washed and scraped from the cell culture dishes with ice-cold PBS containing 1 mm EDTA. The scraped cells were pelleted at 1500×g for 10 min at 4° C. The pellet was washed and then resuspended in ice-cold membrane buffer (15 mM Tris, pH 7.5, 1 mM EGTA, 0.3 mM EDTA, and 2 mM MgCl2). The cell suspension was homogenized by 10 strokes at 1200 rpm using a Teflon-glass homogenizer and rotor and further subjected to three freeze-thaw cycles using liquid nitrogen. Membranes were separated by centrifugation at 40,000 g for 25 min at 4° C. The membrane pellet was washed and resuspended in ice-cold Tris-sucrose buffer (20 mM Tris, pH 7.4, and 250 mM sucrose) and frozen in liquid nitrogen. The total protein was determined using a Bradford assay (Bio-Rad).
(§4) Membranes were then harvested over polyethylenimine (0.5%)-treated Whatman GF/C filter plates and washed three times with ice cold binding buffer containing 500 mM NaCl. Plates were counted by liquid scintillation.

The subject of assay [4] is HIV-1 UG270 (X4, Clade D). The experiment in a line: HIV-1 infection assay PBMC/primary isolate UG270 (p24 Ag ELISA). It counts as cell-based. The following applies: Human immunodeficiency virus 1, PBMC. How it is done:
as §1, §2

For assay [5], the target named is T1, CXCR4. Briefly: Competition binding with [125I]-238D2 on membranes from HEK293T cells transiently expressing CXCR4. Further details: expressed in transfected cells; host or cells: HEK293T, transient (pcDNA3.1-CXCR4). Here is the method: as §3, §4
The test system of assay [6] is X4 HIV-1 NL4.3. The experiment in a line: HIV-1 infection assay PBMC/NL4.3 (p24 Ag ELISA). It counts as cell-based. The following applies: Human immunodeficiency virus 1, PBMC. How it is done:
(§5) The CXCR4-using (X4) HIV-1 molecular clone NL4.3 was obtained from the National Institutes of Health NIAID AIDS Reagent program (Bethesda, Md.), the CCR5-using (R5) HIV-1 strain BaL was obtained from the Medical Research Council AIDS reagent project (Herts, UK). […] The MT-4 cells were seeded out in 96-well plate and the U87 cells in 24-well plates. The test compounds were added at different concentrations together with HIV-1 and the plates were maintained at 37° C. in 10% CO2. Cytopathic effect induced by the virus was monitored by daily microscopic evaluation of the virus-infected cell cultures. […] The absorbance was then measured spectrophotometrically at 490 nm with a 96-well plate reader (Molecular Devices, Sunnyvale, Calif.) and compared with four cell control replicates (cells without virus and drugs) and four virus control wells (virus-infected cells without drugs).
as §2, with “with phytohemagglutin (PHA) (Sigma Chemical Co., Bornem Belgium) for 3” for “with phytohemagglutin for 3”, “activated cells (PHA-stimulated blasts) were washed” for “activated cells were washed”, “(Schols D, Struyf S, Van Damme J, Este J A, Henson G, De Clercq E. Inhibition of” for “(Schols D, et al. (1997) Inhibition of”, “Exp Med 1997; 186:1383-1388). At” for “Exp Med 186:1383-1388). At”
as §1
Peripheral blood mononuclear cells (PBMCs) from healthy donors were isolated by density centrifugation (Lymphoprep; Nycomed Pharma, AS Diagnostics, Oslo, Norway) and stimulated with phytohemagglutin for 3 days. […] At 8-10 days after the start of the infection, viral p24 Ag was detected in the culture supernatant by an enzyme-linked immunosorbent assay (Perkin Elmer, Brussels, Belgium).

In assay [7] the target is T1, CXCR4. Briefly: Competition binding with [125I]-CXCL12 on membranes from HEK293T cells transiently expressing CXCR4. Further details: expressed in transfected cells; host or cells: HEK293T, transient (pcDNA3.1-CXCR4). To be noted: for Displacem. (%) of [125I]-CXCL12: maximal displacement, a: no significant displacement at 0.5 μM, b/c(B-6): maximum not reached, displacement at 0.5 μM. Here is the method: as §3
Membranes were then harvested over polyethylenimine (0.5%)-treated Whatman GF/C filter plates and washed three times with ice cold binding buffer containing 500 mM NaCl. Plates were counted by liquid scintillation. […]

Assay [8] concerns the target T1, CXCR4. To be noted: 3 μM; control experiment; membranes from HEK293T cells transiently expressing CXCR4.
For assay [9], the system named is R5 HIV-1 BaL. Briefly: HIV-1 infection assay U87.CD4.CCR5/BaL (MTS). It counts as cell-based. To be noted: read-out: Anti-HIV-1 activity (IC50).
Assay [10] has as its system R5 HIV-1 BaL. Briefly: HIV-1 infection assay PBMC/BaL (p24 Ag ELISA). It is filed as cell-based. How it is done: as §5
as §2, with “with phytohemagglutin (PHA) (Sigma Chemical Co., Bornem Belgium) for 3” for “with phytohemagglutin for 3”, “activated cells (PHA-stimulated blasts) were washed” for “activated cells were washed”, “(Schols D, Struyf S, Van Damme J, Este J A, Henson G, De Clercq E. Inhibition of” for “(Schols D, et al. (1997) Inhibition of”, “Exp Med 1997; 186:1383-1388). At” for “Exp Med 186:1383-1388). At”
as §1, §2

Where [11] appears, read: 238C5 only at high concentrations (≧100 nM).
Where [12] appears, read: maximal displacement, a: no significant displacement at 0.5 μM, b: displacement at 0.5 μM.

T1 sequence (P61073 whole entry): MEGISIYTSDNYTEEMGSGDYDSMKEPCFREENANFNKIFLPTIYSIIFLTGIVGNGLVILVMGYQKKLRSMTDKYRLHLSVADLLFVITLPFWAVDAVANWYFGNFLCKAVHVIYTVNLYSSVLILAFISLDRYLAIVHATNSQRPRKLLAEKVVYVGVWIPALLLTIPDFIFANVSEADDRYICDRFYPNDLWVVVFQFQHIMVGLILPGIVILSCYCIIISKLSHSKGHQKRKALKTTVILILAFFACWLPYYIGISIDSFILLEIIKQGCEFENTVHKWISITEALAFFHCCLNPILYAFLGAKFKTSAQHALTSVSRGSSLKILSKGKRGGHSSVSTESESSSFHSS

With `c1cc(CN2CCCNCCNCCCNCC2)ccc1CN1CCCNCCNCCCNCC1` [AMD3100], the half-maximal inhibitory concentration (IC50) in assay [1] (PBMC + CI#17 donor 1) was 0.0121 µg/mL; in [1] (PBMC + CI#17 donor 2), 0.0149 µg/mL; in [2], 0.0064 µg/mL (≈ 0.0127 µM); in assay [4] (PBMC + UG270 donor 1), 0.0036 µg/mL; in assay [4] (PBMC + UG270 donor 2), 0.0179 µg/mL; in assay [6] (PBMC + NL4.3 donor 1), 0.0011 µg/mL. In assay [6] (PBMC + NL4.3 donor 2), the IC50 is greater than 0.04 µg/mL. The IC90 in assay [1] (PBMC + CI#17 donor 1) was greater than 0.04 µg/mL; in assay [1] (PBMC + CI#17 donor 2), 0.0379 µg/mL; in assay [2], greater than 0.04 µg/mL; in assay [4] (PBMC + UG270 donor 1) it was 0.0154 µg/mL; in assay [4] (PBMC + UG270 donor 2), 0.0341 µg/mL; in assay [6] (PBMC + NL4.3 donor 1) it was 0.0099 µg/mL. For the same molecule, the IC90 in [6] (PBMC + NL4.3 donor 2) is greater than 0.04 µg/mL. For the same molecule, the “displacement of [125I]-238D4 (in words)” value in assay [3] (setting [11]) is recorded as “displaced”. Besides, in assay [3] (setting [12]), the “Displacem. (%) of [125I]-238D4” value was 99 ± 4%. The “displacement of [125I]-238D2 (in words)” value in [5] (setting [11]) is “displaced”. Moreover, the “Displacem. (%) of [125I]-238D2” value in [5] (setting [12]) is given as 102 ± 1%. The “Displacem. (%) of [125I]-CXCL12” value in [7] amounted to 94 ± 2%. Further, in [8], the “displacement of [125I]-CXCL12” value is reported as “full”.

As for maraviroc, the concentration for half-maximal inhibition (IC50) in assay [9] turned out to be 0.72 nM; in assay [10] (PBMC + BaL donor 1), 0.0015 µg/mL; in assay [10] (PBMC + BaL donor 2), 0.0008 µg/mL; in assay [10] (read-out: Anti-HIV-1 activity (IC50), PBMC/BaL) it was 3.13 nM. Besides, the results for the “IC90” value in assay [10] (PBMC + BaL donor 1) and in assay [10] (PBMC + BaL donor 2) were 0.0273 µg/mL and 0.0131 µg/mL, respectively.

B1: 238D2-20GS-238B10: bivalent Nanobody, SEQ ID NO: 266 (protein)
chain: EVQLVESGGGLVQTGGSLRLSCAASGFTFSSYAMSWVRQAPGKGLEWVSGIKSSGDSTRYAGSVKGRFTISRDNAKNMLYLQMYSLKPEDTAVYYCAKSRVSRTGLYTYDNRGQGTQVTVSSGGGGSGGGGSGGGGSGGGGSEVQLVESGGGFVQAGGSLRLSCETSGRPLLGYTIAWFRQVPGKEREFVAYHRWSDGANLYADSVKGRFTISGHNAKNTVSLQMNSLKPEDTAVYYCAAARMTTSNDKEYLYWGQGTQVTVSS
modifications: Nanobodies
For the molecule B1, the “pKi ([125I]-CXCL12)” value in [7] (HEK293T-CXCR4 membranes) was less than 7.00. For the same molecule, the “Rel. potency, relative to monovalent 238D2” value in [7] ([125I]-CXCL12 displacement affinity, fold) is on record as <0.1^a. Further, in assay [7], the “Displacem. (%) of [125I]-CXCL12” value is 43 ± 11^c %.

Values taken from patent publication US9005963B2, “Amino acid sequences directed against cellular receptors for viruses and bacteria” (Ablynx N.V., priority 2008, dated 2015).
